Data as given in patent US20150087673A1, “METHODS FOR USING AND BIOMARKERS FOR AMPK-ACTIVATING COMPOUNDS” (RIGEL PHARMACEUTICALS, INC., priority 2013, published 2015).

tested on: AMPK; assay: AMPK activation assay (enzyme-linked immunosorbent assay); assay type: cell-based
Description: Compounds were assayed for their ability to activate AMPK using an enzyme-linked immunosorbent assay. Reagents and procedures for measuring AMPK activation are well known and kits for AMPK activation assays are commercially available.

EC50 [nM] | SMILES
1000 to 5000 | COc1ccc(CN2CCC(NC(=O)c3ccc(C(=O)N4CCC(Oc5cccc(NC(C)=O)c5)CC4)nc3)CC2)cc1 [Compound 412, 6-(4-(3-acetamidophenoxy)piperidine-1-carbonyl)-N-(1-(4-methoxybenzyl)piperidin-4-yl)nicotinamide]
> 10000 | CS(=O)(=O)Nc1ccc(OC2CCN(C(=O)c3ccc(C(=O)NC4CCN(Cc5ccc(C#N)cc5)CC4)cn3)CC2)cc1 [Compound 367, N-(1-(4-cyanobenzyl)piperidin-4-yl)-6-(4-(4-(methylsulfonamido)phenoxy)piperidine-1-carbonyl)nicotinamide]
< 500 | CS(=O)(=O)c1ccc(OC2CCN(C(=O)c3ccc(C(=O)NC4CCN(Cc5ccc(C#N)cc5)CC4)nc3)CC2)cc1 [Compound 227, N-(1-(4-cyanobenzyl)piperidin-4-yl)-5-(4-(4-(methylsulfonyl)phenoxy)piperidine-1-carbonyl)picolinamide]
< 500 | COc1ccc(C(=O)C2CCN(C(=O)c3ccc(C(=O)N(C)C4CCN(Cc5ccc(C#N)cc5)CC4)cn3)CC2)cc1 [Compound 482, N-(1-(4-cyanobenzyl)piperidin-4-yl)-6-(4-(4-methoxybenzoyl)piperidine-1-carbonyl)-N-methylnicotinamide]
< 500 | N#Cc1ccc(CN2CCC(NC(=O)c3ccc(C(=O)N4CCC(Oc5ccc(N)cc5)CC4)nc3)CC2)cc1 [Compound 364, 6-(4-(4-aminophenoxy)piperidine-1-carbonyl)-N-(1-(4-cyanobenzyl)piperidin-4-yl)nicotinamide]
< 500 | CC(=O)c1ccc(OC2CCN(C(=O)c3ccc(C(=O)NC4CCN(Cc5ccc(C#N)cc5)CC4)nn3)CC2)cc1 [Compound 437, 6-(4-(4-acetylphenoxy)piperidine-1-carbonyl)-N-(1-(4-cyanobenzyl)piperidin-4-yl)pyridazine-3-carboxamide]
< 500 | N#Cc1ccc(CN2CCC(NC(=O)c3ccc(C(=O)N4CCC(Oc5ccc(S(=O)(=O)C(F)(F)F)cc5)CC4)cn3)CC2)cc1 [Compound 415, N-(1-(4-cyanobenzyl)piperidin-4-yl)-5-(4-(4-(trifluoromethylsulfonyl)phenoxy)piperidine-1-carbonyl)picolinamide]
1000 to 5000 | N#Cc1ccc(CN2CCC(NC(=O)c3ccc(C(=O)N4CCC(S(=O)(=O)c5ccc(F)cc5)CC4)nc3)CC2)cc1 [Compound 471, N-(1-(4-cyanobenzyl)piperidin-4-yl)-6-(4-(4-fluorophenylsulfonyl)piperidine-1-carbonyl)nicotinamide]
< 500 | O=C(NC1CCN(Cc2ccc(F)cc2)CC1)c1ccc(C(=O)N2CCC(C(=O)c3ccc(N4CCCC4)cc3)CC2)nc1 [Compound 381, N-(1-(4-fluorobenzyl)piperidin-4-yl)-6-(4-(4-(pyrrolidin-1-yl)benzoyl)piperidine-1-carbonyl)nicotinamide]
< 500 | N#Cc1ccc(CN2CCC(NC(=O)c3ccc(C(=O)N4CC[C@H](Oc5ccc(F)cc5)C4)cn3)CC2)cc1 [Compound 270, (S)-N-(1-(4-cyanobenzyl)piperidin-4-yl)-5-(3-(4-fluorophenoxy)pyrrolidine-1-carbonyl)picolinamide]
< 500 | N#Cc1ccc(CN2CCC(NC(=O)c3ccc(C(=O)N4CCC(Oc5ccc(NC(=O)C6CC6)cc5)CC4)nc3)CC2)cc1 [Compound 409, N-(1-(4-cyanobenzyl)piperidin-4-yl)-6-(4-(4-(cyclopropanecarboxamido)phenoxy)piperidine-1-carbonyl)nicotinamide]

The remaining lines, values behind:

SMILES | EC50 [nM]
COc1ccc(N2CCC(Nc3ccc(C(=O)NC4CCN(Cc5ccc(C#N)cc5)CC4)nc3)CC2)cc1 [Compound 275, N-(1-(4-cyanobenzyl)piperidin-4-yl)-5-(1-(4-methoxyphenyl)piperidin-4-ylamino)picolinamide] | < 500
O=C(c1ccc(Nc2ccc(Oc3ccccc3)cc2)nc1)N1CCN(Cc2ccc(F)cc2)CC1 [Compound 34, (4-(4-fluorobenzyl)piperazin-1-yl)(6-(4-phenoxyphenylamino)pyridin-3-yl)methanone] | 1000 to 5000
COc1ccc(-c2ccc(NC(=O)c3ccc(C(=O)N4CCN(Cc5ccc(F)cc5)CC4)cn3)cc2)cc1 [Compound 29, N-(4-(4-methoxyphenyl)phenyl)-5-(4-(4-fluorobenzyl)piperazine-1-carbonyl)picolinamide] | 500 to 1000
N#Cc1ccc(CN2CCC(NC(=O)c3ccc(C(=O)N4CCC(C(=O)c5ccc(N6CCCC6)cc5)CC4)nc3)CC2)cc1F [Compound 447, N-(1-(4-cyano-3-fluorobenzyl)piperidin-4-yl)-6-(4-(4-(pyrrolidin-1-yl)benzoyl)piperidine-1-carbonyl)nicotinamide] | < 500
N#Cc1ccc(CN2CCC(NC(=O)c3ccc(C(=O)N4CCN(C5CCOCC5)CC4)cn3)CC2)cc1 [Compound 83, N-(1-(4-cyanobenzyl)piperidin-4-yl)-5-(4-(tetrahydro-2H-pyran-4-yl)piperazine-1-carbonyl)picolinamide] | > 10000
CN1CCN(c2ccc(NC(=O)c3ccc(C(=O)N4CCN(Cc5ccc(F)cc5)CC4)cn3)cc2)CC1 [Compound 41, 5-(4-(4-fluorobenzyl)piperazine-1-carbonyl)-N-(4-(4-methylpiperazin-1-yl)phenyl)picolinamide] | > 10000
CS(=O)(=O)c1ccc(C(=O)C2CCN(C(=O)c3ccc(C(=O)NC4CCN(Cc5ccc(C#N)cc5)CC4)nc3)CC2)cc1 [Compound 228, N-(1-(4-cyanobenzyl)piperidin-4-yl)-5-(4-(4-(methylsulfonyl)benzoyl)piperidine-1-carbonyl)picolinamide] | < 500
N#Cc1ccc(CN2CCC(NC(=O)c3ccc(C(=O)N4CCC(Oc5ccc(NC(=O)CCOCCOCCOCCOCCNC(=O)CCC[C@@H]6SC[C@@H]7NC(=O)N[C@@H]76)cc5)CC4)nc3)CC2)cc1 [Compound 371, N-(1-(4-cyanobenzyl)piperidin-4-yl)-6-(4-(4-(17-oxo-20-((3aS,4S,6aR)-2-oxohexahydro-1H-thieno[3,4-d]imidazol-4-yl)-4,7,10,13-tetraoxa-16-azaicosanamido)phenoxy)piperidine-1-carbonyl)nicotinamide] | > 10000
N#Cc1ccc(CN2CCC(NC(=O)c3ccc(C(=O)N4CCC(C(F)c5ccc(F)cc5)CC4)cn3)CC2)cc1 (stereo not drawn) [Compound 138, N-(1-(4-cyanobenzyl)piperidin-4-yl)-5-(4-(fluoro(4-fluorophenyl)methyl)piperidine-1-carbonyl)picolinamide] | < 500
N#Cc1ccc(OC2CCN(c3ccc(C(=O)N4CCN(Cc5ccc(F)cc5)CC4)cn3)CC2)cc1 [Compound 188, 4-(1-(5-(4-(4-fluorobenzyl)piperazine-1-carbonyl)pyridin-2-yl)piperidin-4-yloxy)benzonitrile] | 500 to 1000
O=C(Nc1ccc(Oc2ccc(F)cc2)cc1)c1ccc(C(=O)N2CCN(Cc3ccc(F)cc3)CC2)cn1 [Compound 60, 5-(4-(4-fluorobenzyl)piperazine-1-carbonyl)-N-(4-(4-fluorophenoxy)phenyl)picolinamide] | < 500
COc1ccc(C(=O)C2CCN(C(=O)c3ccc(C(=O)N[C@@H]4CCN(Cc5ccc(C#N)cc5)C[C@H]4F)cn3)CC2)cc1 [Compound 452, N-((3R,4R)-1-(4-cyanobenzyl)-3-fluoropiperidin-4-yl)-6-(4-(4-methoxybenzoyl)piperidine-1-carbonyl)nicotinamide] | < 500
O=C(c1ccccc1)c1ccc(NC(=O)c2ccc(C(=O)N3CCN(Cc4ccc(F)cc4)CC3)cn2)cc1 [Compound 26, N-(4-benzoylphenyl)-5-(4-(4-fluorobenzyl)piperazine-1-carbonyl)picolinamide] | < 500
N#Cc1ccc(CN2CCC(NC(=O)c3ccc(C(=O)N4CCCC(Cc5ccc(F)cc5)C4)cn3)CC2)cc1 (stereo not drawn) [Compound 152, N-(1-(4-cyanobenzyl)piperidin-4-yl)-5-(3-(4-fluorobenzyl)piperidine-1-carbonyl)picolinamide] | < 500
N#Cc1ccc(CN2CCC(NC(=O)c3ccc(C(=O)N4CCC(C(=O)c5ccc(N6CCOCC6)cc5)CC4)cn3)CC2)cc1 [Compound 376, N-(1-(4-cyanobenzyl)piperidin-4-yl)-5-(4-(4-morpholinobenzoyl)piperidine-1-carbonyl)picolinamide] | < 500
CC(=O)c1ccc(Oc2ccc(NC(=O)c3ccc(C(=O)N4CCC(S(=O)(=O)c5ccc(F)cc5)CC4)nc3)cn2)cc1 [Compound 473, N-(6-(4-acetylphenoxy)pyridin-3-yl)-6-(4-(4-fluorophenylsulfonyl)piperidine-1-carbonyl)nicotinamide] | 1000 to 5000
O=C(c1ccc(C(=O)N2CCN(Cc3ccccc3)CC2)nc1)N1CCN(Cc2ccccc2)CC1 [Compound 73, pyridine-2,5-diylbis((4-benzylpiperazin-1-yl)methanone)] | 5000 to 10000
O=C(NC1CCN(c2ccccc2)CC1)c1ccc(C(=O)N2CCN(Cc3ccc(F)cc3)CC2)cn1 [Compound 14, 5-(4-(4-fluorobenzyl)piperazine-1-carbonyl)-N-(1-(phenyl)piperidin-4-yl)picolinamide] | 500 to 1000
COc1ccc(C(=O)C2CCN(C(=O)c3ccc(C(=O)N[C@@H]4CCN(Cc5ccc(C#N)cc5)C[C@@H]4F)cn3)CC2)cc1 (relative stereo) [Compound 454, N-((cis)-1-(4-cyanobenzyl)-3-fluoropiperidin-4-yl)-6-(4-(4-methoxybenzoyl)piperidine-1-carbonyl)nicotinamide] | < 500
O=C(Nc1ccc(-c2ccsc2)cc1)c1ccc(C(=O)N2CCN(Cc3ccc(F)cc3)CC2)cn1 [Compound 62, 5-(4-(4-fluorobenzyl)piperazine-1-carbonyl)-N-(4-(thiophen-3-yl)phenyl)picolinamide] | < 500
N#Cc1ccc(CN2CCC(NC(=O)c3ccc(C(=O)N4CCC(C(=O)c5ccc(N6CCCC6)cc5)CC4)cn3)CC2)cc1 [Compound 365, N-(1-(4-cyanobenzyl)piperidin-4-yl)-5-(4-(4-(pyrrolidin-1-yl)benzoyl)piperidine-1-carbonyl)picolinamide] | < 500
O=C(Nc1ccc(C(=O)N2CCN(Cc3ccc(F)cc3)CC2)cn1)c1ccc(-c2ccccc2)cc1 [Compound 170, N-(5-(4-(4-fluorobenzyl)piperazine-1-carbonyl)pyridin-2-yl)biphenyl-4-carboxamide] | > 10000
